Data taken from patent publication US4985445A, “Cancer cell metastasis inhibitors and novel compounds” (Meiji Seika Kaisha, Ltd., priority 1988, dated 1991).
Like-named read-outs stand apart in the source and are kept apart here.

What was measured:
[1] = tested on: B16 subline of high pulmonary metastatic potential; assay: Inhibition of pulmonary metastasis of B16 subline pretreated with compound and injected i.v. into BDF1 mice; assay type: in vivo, murine; mouse BDF1; conditions: for Inhibition of metastasis to the lungs (in words): B16 subline, BDF1 mice
Method: Based on the method described priviously (Method in Cancer Research, 15, 399-439, 1978), a subline of high metastatic potential (high pulmonary colonization) was selected from murine melanoma B16 by repeating the i.v. transplantation of the tumor cells in BDF1 mice and the isolation of pulmonary metastatic clones.
Evaluation of the metastasis inhibiting activity was performed based on the method described previously (Proc. Natl Acad. Sci. USA, 83, 1752-1756, 1986, Cancer Research, 46, 858-862, 1986).
Firstly, the B16 subline of high metastatic potential was inoculated into Dulbecco's ME medium (DME medium) supplemented with 10% bovine fetal serum and the compound represented by general formula (I) described above was added thereto.
The B16 subline of high pulmonary metastatic potential was inoculated into DME medium supplemented with 10% bovine fetal serum and 30, 100 or 300 μg/ml of N (3-phenylpropyl)-1-deoxynojirimycin was added thereto followed by incubation at 37° C. for 3 days in the presence of 5% CO2.
Inhibition of metastasis was examined in a manner similar to Test Example 2 except that N-(3-phenyl-2-propenyl)-1-deoxy-nojirimycin and N-(3-p-chlorophenyl-3-methyl-2-propenyl)-1-deoxynojirimycin were used instead of N-(3-phenylpropyl)-1-deoxynojirimycin in Test Example 2. In this test example, however, 2.5×10^5 cells each of the B16 subline were transplanted to 3 mice for each group.
The B16 subline of high pulmonary metastatic potential was inoculated into DME medium supplemented with 10% bovine fetal serum and 30 μg/ml of N-(4-phenoxy-trans-2-butenyl)-1-deoxynojirimycin was added thereto followed by incubation at 37° C. for 3 days in the presence of 5% CO2. […] The number of colonies of the B16 subline formed on the surface of and in the lung was counted.
Inhibition of metastasis was examined in a manner similar to Test Example 5 except that N-(2-phenoxyethyl)-1-deoxynojirimycin was used instead of N-(4-phenoxy-trans-2-butenyl)-1-deoxynojirimycin in Test Example 5.
The B16 sibline of high pulmonary metastatic potential was inoculated into DME medium supplemented with 10% bovine fetal serum and 10 μg/ml of D-glucaro-δ-lactam calcium salt was added thereto followed by incubation at 37° C. for 3 days in the presence of 5% CO2. […] The number of the colonies formed on the surface of and in the lung was counted.
Inhibition of metastasis was examined in a manner similar to Test Example 8 except that D-glucaro-δ-lactam methyl ester and D-glucaro-δ-lactam ethyl ester were used instead of D-glucaro-δ-lactam calcium salt in Test Example 8.
The B16 subline of high pulmonary metastatic potential was inoculated into DME medium supplemented with 10% bovine fetal serum and 10 μg/ml of 2,6-di-O-(acetylsalicyloyl)-D-gluco-δ-lactam was added thereto followed by incubation at 37° C. for 3 days in the presence of 5% CO2.
The B16 subline of high pulmonary metastatic potential was inoculated into DME medium supplemented with 10% bovine fetal serum and 30 μg/ml of 6-O-triphenylmethyl-D-gluco-δ-lactam was added thereto followed by incubation at 37° C. for 3 days in the presence of 5% CO2.
The B16 subline of high pulmonary metastatic potential was inoculated into DME medium supplemented with 10% bovine fetal serum and 30 μg/ml of 1-deoxynojirimycin was added thereto followed by incubation at 37° C. for 3 days in the presence of 5% CO2.

[2] = tested on: B16 subline of high pulmonary metastatic potential; conditions: 3 days;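 note: + means growth and ± means marked inhibition and - means cell death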
Method: (§1) The B16 subline of high pulmonary metastatic potential and murine tumor cell line L 929 were cultured in DME medium supplemented with 10% bovine fetal serum at 37° C. in the presence of 5% CO2. Then, cells were detached from the Petri dish with trypsin-EDTA solution. The B16 subline and L 929 were suspended in the medium described above in 1×10^4 cells/ml and 1×10^3 cells/ml, respectively. Each suspension, 150 μl, was added to 50 μl of N-(3-phenylpropyl)-1-deoxynojirimycin solution or Adriamycin (control) solution. Incubation was performed for 3 days for the B16 subline and for 4 days for L 929 strain.
as §1, with “of N-(4-phenoxy-trans-2-butenyl)-1-deoxynojirimycin” for “of N-(3-phenylpropyl)-1-deoxynojirimycin”, “days in” for “days for”, “L 929.” for “L 929 strain.”
as §1, with “of D-glucaro-δ-lactam calcium salt” for “of N-(3-phenylpropyl)-1-deoxynojirimycin”, “(control) solutions.” for “(control) solution.”, “days in” for “days for”, “L 929.” for “L 929 strain.”
The B16 subline of high pulmonary metastatic potential and murine tumor cell line L 929 were cultured in DME medium supplemented with 10% bovine fetal serum at 37° C. in the presence of 5% CO2. Then, cells were detached from the Petri dish with trypsin-EDTA solution. The B16 subline and L 929 were suspended in the medium described above in 1×10^4 cells/ml and 1×10^3 cells/ml, respectively. Each suspension, 150 μl, was added to 50 μl of 2,6-di-O-(1-(p-chlorobenzoyl)-5-methoxy-2-methylindole-3-acetyl)-D-gluco-δ-lactam solution or and Adriamycin (control) solutions. Incubation was performed for 3 days in the B16 subline and for 4 days in L 929.
The B16 subline of high pulmanary metastatic potential and murine tumor cell line L 929 were cultured in DME medium supplemented with 10% bovine fetal serum at 37° C. in the presence of 5% CO2. Then, cells were detached from the Petri dish with trypsin-EDTA solution. The B16 subline and L 929 were suspended in the medium described above in 1×10^4 cells/ml and 1×10^3 cells/ml, respectively. Each suspension, 150 μl, was added to 50 μl of 6-O-triphenylmethyl-D-gluco-δ-lactam solution or Adriamycin (control) solutions. Incubation was performed for 3 days in the B16 sibline and for 4 days in L 929.
The B16 subline of high pulmonary metastatic potential was inoculated into DME medium supplemented with 10% bovine fetal serum and 30 μg/ml of 1-deoxynojirimycin was added thereto followed by incubation at 37° C. for 3 days in the presence of 5% CO2. […] Next, the cells were detached from the Petri dish with trypsin-EDTA solution. The cells were suspended in PBS- in 1×10^6 cells/ml as viable cells. This suspension, 0.1 ml, was intravenously injected in the tail vein of the mouse BDF1 (8 week age, male; 1 group, 3 mice). After feeding for 14 days, the mouse was sacrificed to excise the lungs. The number of colonies of the B16 subline on the surface of and in the lungs was counted.

[3] = Acute toxicity (LD50) by mice; conditions: mouse, in vivo
[4] = tested on: murine tumor cell line L 929; assay: Cytotoxic activity against L 929 (growth observed with inverted microscope, 4 days); assay type: cell-based; conditions: for Cytotoxicity (in words): L 929, even at a concentration as high as 30 μg/ml; for Growth: 4 days;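 for growth: + means growth and ± means marked inhibition and - means cell death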
Method: The B16 subline of high pulmonary metastatic potential and murine tumor cell line L 929 were cultured in DME medium supplemented with 10% bovine fetal serum at 37° C. in the presence of 5% CO2.
The B16 subline of high pulmanary metastatic potential and murine tumor cell line L 929 were cultured in DME medium supplemented with 10% bovine fetal serum at 37° C. in the presence of 5% CO2.

In the case of `O=C1N[C@H](COC(c2ccccc2)(c2ccccc2)c2ccccc2)[C@@H](O)[C@H](O)[C@H]1O` [6-O-Triphenylmethyl-D-gluco-δ-lactam, 6-O-triphenylmethyl-D-gluco-δ-lactam], the “Inhibition of metastasis to the lungs (in words)” value [1] is reported as “markedly inhibited”, the “Pulmonary Metastasis (Mean ± Standard Deviation)” value ([1]; Table 14, 30 μg/ml, 3 mice, None 92 ± 21.3) is reported as 17 ± 8.5 no and the Growth ([2]; Table 13, B16 subline, 3 μg/ml) is reported as “+”. For the same compound, the Growth ([2]; Table 13, B16 subline, 10 μg/ml) was “+”, the Growth ([2]; Table 13, B16 subline, 30 μg/ml) was “+” and the LD50 ([3]; sc) was over 300 mg/kg. For the same compound, the “Cytotoxicity (in words)” value [4] was “did not show marked cytotoxicity”, the Growth ([4]; Table 13, L 929, 10 μg/ml) was “+” and the Growth ([4]; Table 13, L 929, 30 μg/ml) was “+”.
With `OC[C@@H]1[C@@H](O)[C@H](O)[C@@H](O)CN1C/C=C/COc1ccccc1` [N-(4-phenoxy-trans-2-butenyl)-1-deoxynojirimycin] the “Inhibition of metastasis to the lungs (in words)” value [1] was “the number of colonies on the surface of and in the lungs was decreased”, the “Pulmonary Metastasis, Mouse 1” value ([1]; Table 6, 10 μg/ml, 14 days) was 14 no and the “Pulmonary Metastasis, Mouse 2” value ([1]; Table 6, 10 μg/ml, 14 days) was 48 no. For the same compound, the “Pulmonary Metastasis, Mouse 3” value ([1]; Table 6, 10 μg/ml, 14 days) was 52 no, the “Pulmonary Metastasis, Mean ± Standard Derivation” value ([1]; Table 6, 10 μg/ml, 14 days, None 135 ± 13.4) was 38 ± 20.9 no and the “Pulmonary Metastasis, %” value ([1]; Table 6, 10 μg/ml, None = 100) was 28.1%. For the same compound, the Growth ([2]; Table 5, B16 subline, 3 μg/ml) was “+”, the Growth ([2]; Table 5, B16 subline, 10 μg/ml) was “+” and the Growth ([2]; Table 5, B16 subline, 30 μg/ml) was “+”. For the same compound, the LD50 ([3]; ip) was over 500 mg/kg, the “Cytotoxicity (in words)” value [4] was “did not show the marked cytotoxicity” and the Growth ([4]; Table 5, L 929, 3 μg/ml) was “+”. For the same compound, the Growth ([4]; Table 5, L 929, 30 μg/ml) was “+” and the Growth ([4]; Table 5, L 929, 100 μg/ml) was “+”.
